Assays:
[1] = system: acute inflammatory oedema of the paws; experiment: Rat's paw oedema test (carrageenin), inhibition of the increase in paw volume; assay type: in vivo; conditions: po, 1 h, male rats, intragastral, one hour after carrageenin
Description: An acute inflammatory oedema of the paws was induced in male rats (100-120 g) by subplantar injection of 0.1 ml of 2% carrageenin (dissolved in aqueous 0.9% NaCl solution). The volume of the paws was measured with a volumetric paw measuring apparatus 1 hour and 4 hours after the carrageenin injection. The differences between the two measurements of the paws was calculated. The test substances were suspended in 1% tylose and administered intragastrally through a stomach tube one hour after the carrageenin injection. The control animals were only given the vehicle (1% tylose). The percentage inhibition of the increase in volume in the treated animals was obtained by a comparison with the untreated controls. The average inhibitory doses (ED50) were calculated by means of the regression curves.

leucocyte migration = experiment: Leucocyte migration test (carrageenin-impregnated polyester sponge); assay type: in vivo; conditions: male rats, 50 mg/kg i.g., given immediately after sponge implantation and after 5 and 21 hours
Description: 2. Leucocyte migration test
A polyester sponge impregnated with 2% carrageenin solution was implanted subcutaneously in the neck region in male rats (140-150 g) (see G. A. Higgs et al, Eur. J. Pharmacol. 66, 81 (1980), A. W. Ford-Hutchinson et al, J. Pharmacol. Methods 1, 3 (1978)). The sponges were removed after 24 hours. The leucocytes which had migrated in were washed out in a PBS solution (pH 7.4, 0.5% trypsin, 10 units/ml of heparin) at 37° C. for 30 minutes.
The sponges were then carefully pressed out and centrifuged (10 minutes, 500 revs/min). The leucocytes in the washing liquid were then counted. The test substances, which were taken up in 1% tylose, and the vehicle (1% tylose) were administered intragastrally with a stomach tube immediately after implantation of the sponge and after 5 hours and 21 hours. The percentage inhibition of leucocyte migration after administration of the test substances was compared with that of the controls. The average inhibitory doses (ED50) were calculated by means of the regression graphs.

[2] = system: PGE 2-synthesis and -release (cyclooxygenase); experiment: Inhibition of PGE 2-synthesis and -release in vitro; assay type: cell-based
Source text: (§1) 3. Inhibition of PGE 2- and LTC 4-synthesis and -release

[3] = system: LTC 4-synthesis and -release (lipoxygenase); experiment: Inhibition of LTC 4-synthesis and -release in vitro; assay type: cell-based
Source text: as §1

Compound | ED50 [1] | Inhibition of leucocyte migration (control = 0%) (leucocyte migration) | further results
CC(=O)NNc1nc2ccc(C)cc2s1 [Example 6, N^2-(6-methylbenzothiazol-2-yl)-acetohydrazide] | 50 mg/kg |  | 
CN(NC=O)c1nc2ccccc2s1 [Example 4, N^2-(benzothiazol-2-yl)-N^2-methyl-formhydrazide] | 50 mg/kg | 50% | 
CN(C)C=NN(C)c1nc2ccccc2s1 [Example 2, N^1-(benzothiazol-2-yl)-N^1,N^3,N^3-trimethylformamidrazone] | 15 mg/kg |  | 
CC=NNc1nc2cc(Cl)ccc2s1 [Example 8] | ~80 mg/kg |  | 
CC=NNc1nc2ccc(C)cc2s1 [Example 7, N-(6-methylbenzothiazol-2-yl)acetaldehydehydrazone] | 25 mg/kg |  | 
CCOC(C)=NNc1nc2ccccc2s1 [Example 5, N^2-(benzothiazol-2-yl)-ethyl-acetohydrazonate] | 25 mg/kg | 30% | 
CN(C)C=NNc1nc2ccccc2s1 [Example 1, N^1-(benzothiazol-2-yl)-N^3,N^3-dimethylformamidrazone] | 14 mg/kg | 25% | PGE2 (% of controls) ([2]; at 10^-4): 29 % of controls; PGE2 (% of controls) ([2]; at 10^-5): 84 % of controls; PGE2 (% of controls) ([2]; at 10^-6): 99 % of controls; cyclooxygenase inhibition (in words) ([2]; conclusion from PGE2 test): cyclooxygenase inhibitor; LTC4 (% of controls) ([3]; at 10^-4): 51 % of controls; lipoxygenase inhibition (in words) ([3]; at 10^-4, conclusion from LTC4 test): lipoxygenase inhibition at 10^-4; LTC4 (% of controls) ([3]; at 10^-5): > 100 % of controls; LTC4 (% of controls) ([3]; at 10^-6): > 100 % of controls
